Experimental data as given in PMC9892719, “High-throughput screening method for discovering CatSper inhibitors using membrane depolarization caused by external calcium chelation and fluorescent cell barcoding” (Frontiers in Cell and Developmental Biology, 2023).

Target: T1, CatSper (Mus musculus, UniProt A2ARP9+Q80W99+Q8BVN3+Q91ZR5)
T1 construct: gene Catsper1; native channel complex in live cauda epididymal sperm; pore of four homologous subunits CatSper 1-4 plus auxiliary subunits; with Cation channel sperm-associated auxiliary subunit beta; Cation channel sperm-associated auxiliary subunit gamma 2; Cation channel sperm-associated auxiliary subunit delta; Cation channel sperm-associated auxiliary subunit epsilon; Cation channel sperm-associated auxiliary subunit zeta; Cation channel sperm-associated targeting subunit tau; Cation channel sperm-associated auxiliary subunit TMEM262; Solute carrier organic anion transporter family member 6C1; Cation channel sperm-associated auxiliary subunit TMEM249
Assay: EGTA-induced Na+ depolarization of live sperm, DiSC3([…]) fluorescence, flow cytometry and spectrofluorometry
Assay type: cell-based
Conditions: non-capacitated sperm, NC TYH medium pH 7.4, 3.5 mM EGTA (free Ca2+ 138 nM)

## O=C(c1cccs1)c1no[n+]([O-])c1C(=O)c1cccs1 [HC-056456]
  block of EGTA-induced depolarization at 10 μM: HC-056456 inhibits CatSper in a concentration-dependent manner
